Our source for the IC50 values is US11292791B2 (priority 2017, dated 2022).

The target of the test is BRD4 (Homo sapiens (Human), UniProt O60885). Particulars: read-out: BRD4 IC50 (μM gmean).

In general, IC50 refers to the concentration that inhibits the measured activity by half. Take `COC(=O)N1c2ccc3c(nc(C4(N5CCCCC5=O)CC4)n3[C@@H]3CCC[C@@H](C(=O)O)C3)c2CC[C@@H]1C` [Example 588]: the IC50 is 1 to 1000 µM.
For `COC(=O)N1c2ccc3c(nc(C(O)c4cc5ccoc5cn4)n3C3CCCC(C(=O)O)C3)c2CC[C@@H]1C` (stereo partly shown) [Example 589], the IC50 is 1 to 1000 µM.
The figure for `COC(=O)N1c2ccc3c(nc(N(C)c4ccc(C)cc4)n3[C@@H]3CCC[C@@H](C(=O)O)C3)c2CC[C@@H]1C` [Example 591] is 1 to 1000 µM.
In the case of `COC(=O)N1c2ccc3c(nc(Cc4cccc(OC(F)F)n4)n3[C@@H]3CCC[C@@H](C(=O)O)C3)c2CC[C@@H]1C` [Example 593], the IC50 was in the range of 1 to 1000 µM.
To `COC(=O)N1c2ccc3c(nc(CC(C(=O)O)c4ccccc4)n3C3COCC(F)(F)C3)c2CC[C@@H]1C` (stereo partly shown) [Example 594] belongs 1 to 1000 µM; to `COC(=O)N1c2ccc3c(nc(C(O)CC4CCC(F)(F)CC4)n3C3CCCC(C(=O)O)C3)c2CC[C@@H]1C` (stereo partly shown) [Example 596], 1 to 1000 µM; to `COC(=O)N1c2ccc3c(nc(Cc4cccc(F)c4)n3[C@@H]3CCC[C@@H](C(=O)O)C3)c2CC[C@@H]1C` [Example 601], 1 to 1000 µM.
The figure for `COC(=O)N1c2ccc3c(nc(CC(C(=O)O)c4ccccc4)n3C3COCC(F)(F)C3)c2CC[C@@H]1C` (stereo partly shown) [Example 602] is 1 to 1000 µM; for `COC(=O)N1c2ccc3c(nc(C(C)(O)c4ccccc4)n3C3CCCC(C(=O)O)C3)c2CC[C@@H]1C` (stereo partly shown) [Example 607] it is 1 to 1000 µM.
In the case of `COC(=O)N1c2ccc3c(nc(C(O)c4ccc(Cl)cn4)n3C3CCCC(C(=O)O)C3)c2CC[C@@H]1C` (stereo partly shown) [Example 610], the IC50 was 1 to 1000 µM.
To `COC(=O)N1c2ccc3c(nc(Cc4cncc(C(C)C)n4)n3[C@@H]3CCC[C@@H](C(=O)O)C3)c2CC[C@@H]1C` [Example 611] belongs 1 to 1000 µM; to `COC(=O)N1c2ccc3c(nc(N(C)c4cccc(F)c4)n3[C@H]3CC[C@H](C(=O)O)CC3)c2CC[C@@H]1C` [Example 613], 1 to 1000 µM; to `COC(=O)N1c2ccc3c(nc(CC4CCCCC4O)n3C3CCCC(C(=O)O)C3)c2CC[C@@H]1C` (stereo partly shown) [Example 614], 1 to 1000 µM.
As to `COC(=O)N1c2ccc3c(nc(Cc4cccc(Cl)c4)n3[C@@H]3CCC[C@@H](C(=O)O)C3)c2CC[C@@H]1C` [Example 616], the IC50 lay within 1 to 1000 µM.
The figure for `COC(=O)N1c2ccc3c(nc(C4(n5cc(Cl)cn5)CC4)n3[C@H]3CC[C@H](C(=O)O)CC3)c2CC[C@@H]1C` [Example 617] is 1 to 1000 µM; for `COC(=O)N1c2ccc3c(nc(Cc4ccc(OC(F)F)nc4)n3[C@@H]3CCC[C@@H](C(=O)O)C3)c2CC[C@@H]1C` [Example 619] it is 1 to 1000 µM; for `COC(=O)N1c2ccc3c(nc(CC(C(=O)O)c4ccc(C5CC5)cc4)n3C3CCCOC3)c2CC[C@@H]1C` (stereo partly shown) [Example 620] it is 1 to 1000 µM.
To `COC(=O)N1c2ccc3c(nc(C(C)CC4CCOCC4)n3C3CCCC(C(=O)O)C3)c2CC[C@@H]1C` (stereo partly shown) [Example 622] belongs 1 to 1000 µM.
Consider `COC(=O)N1c2ccc3c(nc(C(O)C4CCCCC4)n3C3CCCC(C(=O)O)C3)c2CC[C@@H]1C` (stereo partly shown) [Example 625], for which the IC50 fell in the range of 1 to 1000 µM.
The figure for `COC(=O)N1c2ccc3c(nc(C(C)Cn4cccn4)n3C3CCC(C(=O)O)CC3)c2CC[C@@H]1C` (stereo partly shown) [Example 627] is 1 to 1000 µM; for `COC(=O)N1c2ccc3c(nc(CCn4cc(Cl)cn4)n3[C@@H]3CCC[C@@H](C(=O)O)C3)c2CC[C@@H]1C` [Example 628] it is 1 to 1000 µM.
To `COC(=O)N1c2ccc3c(nc(CC(C(=O)O)c4ccc(C(F)F)cc4)n3C3COCC(F)(F)C3)c2CC[C@@H]1C` (stereo partly shown) [Example 629] belongs 1 to 1000 µM; to `COC(=O)N1c2ccc3c(nc(CC(C(=O)O)c4ccccc4)n3C3CCCC(OC)C3)c2CC[C@@H]1C` (stereo partly shown) [Example 632], 1 to 1000 µM.
To `COC(=O)N1c2ccc3c(nc(COc4ccccc4)n3[C@H]3CC[C@H](C(=O)O)CC3)c2CC[C@@H]1C` [Example 633] belongs 1 to 1000 µM.
Regarding `COC(=O)N1c2ccc3c(nc(CN4CCC5(CCC5)CC4=O)n3[C@@H]3CCC[C@@H](C(=O)O)C3)c2CC[C@@H]1C` [Example 634], the IC50 was 1 to 1000 µM.
The figure for `COC(=O)N1c2ccc3c(nc(C(O)c4cc5c(cn4)OCC5)n3C3CCCC(C(=O)O)C3)c2CC[C@@H]1C` (stereo partly shown) [Example 636] is 1 to 1000 µM; for `COC(=O)N1c2ccc3c(nc(Cc4ccc(NC(C)=O)c(F)c4)n3[C@H]3CC[C@H](C(=O)O)CC3)c2CC[C@@H]1C` [Example 639] it is 1 to 1000 µM; for `COC(=O)N1c2ccc3c(nc(Cc4ccc(OC)c(OC)c4)n3[C@@H]3CCC[C@@H](C(=O)O)C3)c2CC[C@@H]1C` [Example 641] it is 1 to 1000 µM.
For `COC(=O)N1c2ccc3c(nc(Cn4cc(Cl)cn4)n3[C@@H]3CCC[C@@H](C(=O)O)C3)c2CC[C@@H]1C` [Example 643], the IC50 lay within 1 to 1000 µM.
To `COC(=O)N1c2ccc3c(nc(CC(C(=O)O)c4cccc(C)c4)n3C3CCCOC3)c2CC[C@@H]1C` (stereo partly shown) [Example 644] belongs 1 to 1000 µM.
To `COC(=O)N1c2ccc3c(nc(Cc4cncc(Cl)n4)n3[C@@H]3CCC[C@@H](C(=O)O)C3)c2CC[C@@H]1C` [Example 645] belongs 1 to 1000 µM.
The figure for `COC(=O)N1c2ccc3c(nc(C(C)(C)c4ccccc4)n3[C@H]3CC[C@H](C(=O)O)CC3)c2CC[C@@H]1C` [Example 646] is 1 to 1000 µM; for `COC(=O)N1c2ccc3c(nc(CCC4CCOCC4)n3[C@@H]3CCC[C@@H](C(=O)O)C3)c2CC[C@@H]1C` [Example 648] it is 1 to 1000 µM; for `COC(=O)N1c2ccc3c(nc(C(C)Cn4cc(Cl)cn4)n3C3CCS(=O)(=O)C3)c2CC[C@@H]1C` (stereo partly shown) [Example 651] it is 1 to 1000 µM.
As for `COC(=O)N1c2ccc3c(nc(C(C)Cn4cc(C)cn4)n3C3CCC(C(=O)O)CC3)c2CC[C@@H]1C` (stereo partly shown) [Example 655], the IC50 fell in the range of 1 to 1000 µM.
On to `COC(=O)N1c2ccc3c(nc(Cc4cc(Cl)cc(OC)c4)n3[C@H]3CC[C@H](C(=O)O)CC3)c2CC[C@@H]1C` [Example 656], for which the IC50 lay in the range of 1 to 1000 µM.
The figure for `COC(=O)N1c2ccc3c(nc(Cc4cccc(F)c4OC)n3[C@H]3CC[C@H](C(=O)O)CC3)c2CC[C@@H]1C` [Example 661] is 1 to 1000 µM.
Turning to `COC(=O)N1c2ccc3c(nc(Cc4ccc(Cl)cn4)n3[C@@H]3CCC[C@@H](C(=O)O)C3)c2CC[C@@H]1C` [Example 663], the IC50 was 1 to 1000 µM.
The figure for `COC(=O)N1c2ccc3c(nc(Cc4ccc(N5CCCC5=O)cc4)n3[C@H]3CC[C@H](C(=O)O)CC3)c2CC[C@@H]1C` [Example 664] is 1 to 1000 µM; for `COC(=O)N1c2ccc3c(nc(Cc4cncc(C5CC5)n4)n3[C@@H]3CCC[C@@H](C(=O)O)C3)c2CC[C@@H]1C` [Example 665] it is 1 to 1000 µM.
To `COC(=O)N1c2ccc3c(nc(C(CO)c4ccccc4)n3C3CCCC(C(=O)O)C3)c2CC[C@@H]1C` (stereo partly shown) [Example 668] belongs 1 to 1000 µM.
With `COC(=O)N1c2ccc3c(nc(Cc4cnc(Cl)cn4)n3[C@@H]3CCC[C@@H](C(=O)O)C3)c2CC[C@@H]1C` [Example 669], the IC50 fell in the range of 1 to 1000 µM.
To `COC(=O)N1c2ccc3c(nc(C(C)Cc4cnn(C)c4)n3C3CCC(C(=O)O)CC3)c2CC[C@@H]1C` (stereo partly shown) [Example 671] belongs 1 to 1000 µM.
To `COC(=O)N1c2ccc3c(nc(C(c4ccc(OC)c(F)c4)C(C)C)n3C3CCC(C(=O)O)CC3)c2CC[C@@H]1C` (stereo partly shown) [Example 673] belongs 1 to 1000 µM; to `COC(=O)N1c2ccc3c(nc(Cc4ccc(F)cc4)n3[C@@H]3CCC[C@@H](C(=O)O)C3)c2CC[C@@H]1C` [Example 675], 1 to 1000 µM.
Take `COC(=O)N1c2ccc3c(nc(CC(C(=O)O)c4cccc(C(F)F)c4)n3C3CCCOC3)c2CC[C@@H]1C` (stereo partly shown) [Example 676]: the IC50 fell in the range of 1 to 1000 µM.
To `COC(=O)N1c2ccc3c(nc(CC(C(=O)O)c4ccccc4)n3-c3ccc(C#N)cc3)c2CC[C@@H]1C` (stereo partly shown) [Example 680] belongs 1 to 1000 µM; to `COC(=O)N1c2ccc3c(nc(N(C)c4ccc(C#N)cc4)n3[C@@H]3CCC[C@@H](C(=O)O)C3)c2CC[C@@H]1C` [Example 681], 1 to 1000 µM.
`COC(=O)N1c2ccc3c(nc(Cc4cc(C(F)(F)F)cnn4)n3[C@@H]3CCC[C@@H](C(=O)O)C3)c2CC[C@@H]1C` [Example 687]: the IC50 is 1 to 1000 µM.
For the compound `COC(=O)N1c2ccc3c(nc(CN4CCC5(CC5)CC4=O)n3[C@@H]3CCC[C@@H](C(=O)O)C3)c2CC[C@@H]1C` [Example 688], the IC50 lay in the range of 1 to 1000 µM.
To `COC(=O)N1c2ccc3c(nc(N(C)c4ccc(Cl)cc4)n3[C@H]3CC[C@H](C(=O)O)CC3)c2CC[C@@H]1C` [Example 691] belongs 1 to 1000 µM.
The figure for `COC(=O)N1c2ccc3c(nc(COC4CCCCC4)n3[C@H]3CC[C@H](C(=O)O)CC3)c2CC[C@@H]1C` [Example 692] is 1 to 1000 µM.
In the case of `COC(=O)N1c2ccc3c(nc(Cc4cccc(OC5CC5)n4)n3[C@@H]3CCC[C@@H](C(=O)O)C3)c2CC[C@@H]1C` [Example 695], the IC50 lay within 1 to 1000 µM.
As to `COC(=O)N1c2ccc3c(nc(CN4CCC(C)(C)CC4=O)n3[C@@H]3CCC[C@@H](C(=O)O)C3)c2CC[C@@H]1C` [Example 696], the IC50 lay within 1 to 1000 µM.
As for `COC(=O)N1c2ccc3c(nc(CC(C(=O)O)c4ccccc4)n3-c3cccc(C#N)c3)c2CC[C@@H]1C` (stereo partly shown) [Example 698], the IC50 fell in the range of 1 to 1000 µM.
The figure for `COC(=O)N1c2ccc3c(nc(C(O)C4CCC(F)(F)CC4)n3C3CCCC(C(=O)O)C3)c2CC[C@@H]1C` (stereo partly shown) [Example 699] is 1 to 1000 µM.
The figure for `COC(=O)N1c2ccc3c(nc(CC(C(=O)O)c4ccc(C)cc4)n3C3COCC(F)(F)C3)c2CC[C@@H]1C` (stereo partly shown) [Example 700] is 1 to 1000 µM; for `COC(=O)N1c2ccc3c(nc(COC4CCCCC4)n3[C@@H]3CCC[C@@H](C(=O)O)C3)c2CC[C@@H]1C` [Example 702] it is 1 to 1000 µM; for `COC(=O)N1c2ccc3c(nc(C4(c5cncc(C)n5)CC4)n3[C@@H]3CCC[C@@H](C(=O)O)C3)c2CC[C@@H]1C` [Example 704] it is 1 to 1000 µM.
The figure for `COC(=O)N1c2ccc3c(nc(Cc4ccccc4C#N)n3[C@H]3CC[C@H](C(=O)O)CC3)c2CC[C@@H]1C` [Example 706] is 1 to 1000 µM.
`COC(=O)N1c2ccc3c(nc(Cc4cccc(C#N)c4)n3[C@H]3CC[C@H](C(=O)O)CC3)c2CC[C@@H]1C` [Example 707]: the IC50 lay within 1 to 1000 µM.
